{"source": "paper PMC9958325", "about": "(Nature Communications, 2023)", "key": {"[1]": {"target": "T1, human calpain (Homo sapiens, UniProt P07384)", "T1 sequence (P07384 2-714)": "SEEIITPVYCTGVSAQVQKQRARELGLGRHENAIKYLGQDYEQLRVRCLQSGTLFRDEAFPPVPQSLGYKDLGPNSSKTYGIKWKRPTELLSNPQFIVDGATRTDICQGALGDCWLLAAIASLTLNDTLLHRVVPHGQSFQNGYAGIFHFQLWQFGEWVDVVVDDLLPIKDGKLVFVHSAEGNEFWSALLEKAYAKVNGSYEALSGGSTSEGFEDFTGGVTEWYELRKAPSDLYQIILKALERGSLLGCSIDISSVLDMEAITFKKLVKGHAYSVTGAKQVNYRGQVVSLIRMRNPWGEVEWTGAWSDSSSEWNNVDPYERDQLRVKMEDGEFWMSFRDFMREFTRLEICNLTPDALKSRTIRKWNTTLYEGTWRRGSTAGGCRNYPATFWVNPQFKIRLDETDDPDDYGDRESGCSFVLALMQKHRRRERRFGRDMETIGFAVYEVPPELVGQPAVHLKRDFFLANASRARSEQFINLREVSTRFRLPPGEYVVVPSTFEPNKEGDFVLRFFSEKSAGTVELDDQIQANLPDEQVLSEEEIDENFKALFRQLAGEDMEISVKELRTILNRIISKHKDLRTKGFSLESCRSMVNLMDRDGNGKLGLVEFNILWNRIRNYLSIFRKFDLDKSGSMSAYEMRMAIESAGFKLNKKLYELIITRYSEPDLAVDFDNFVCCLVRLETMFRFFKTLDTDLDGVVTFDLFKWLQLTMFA", "T1 sequence (P04632 1-268 partner)": "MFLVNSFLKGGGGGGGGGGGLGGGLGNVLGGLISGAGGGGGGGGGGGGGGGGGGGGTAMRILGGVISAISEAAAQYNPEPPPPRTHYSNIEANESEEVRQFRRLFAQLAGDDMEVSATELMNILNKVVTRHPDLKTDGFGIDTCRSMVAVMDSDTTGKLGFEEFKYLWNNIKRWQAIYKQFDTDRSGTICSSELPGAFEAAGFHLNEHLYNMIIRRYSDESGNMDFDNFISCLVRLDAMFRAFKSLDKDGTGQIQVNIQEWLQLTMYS", "experiment": "Human calpain activity assay", "type": "biochemical", "details": "for %inhibition against humanCalpain: triplicate"}, "[2]": {"test_system": "SARS-CoV-2^WK-521", "experiment": "microbe, parasite or virus in culture", "type": "cell-based", "parameters": "EC95, individual assays / EC95, Average: unit: µM"}, "[3]": {"test_system": "SARS-CoV-2 TKYX00012/ο BA.1", "experiment": "microbe, parasite or virus in culture", "type": "cell-based"}, "[4]": {"test_system": "SARS-CoV-2 TKYS02037/ο BA.2", "experiment": "microbe, parasite or virus in culture", "type": "cell-based"}, "[5]": {"test_system": "SARS-CoV-2 TKYTS14631/ο BA.5", "experiment": "microbe, parasite or virus in culture", "type": "cell-based"}, "[6]": {"test_system": "SARS-CoV-2 UT-NCD1757-1N/ο BA.2.75", "experiment": "microbe, parasite or virus in culture", "type": "cell-based"}, "[7]": {"test_system": "SARS-CoV-2^WK521 in HeLa-ACE2-TMPRSS2 cells", "experiment": "Antiviral assay, HeLa-ACE2-TMPRSS2 cells, WK521", "type": "cell-based"}, "[8]": {"test_system": "SARS-CoV-2^WK521 in A549-ACE2-TMPRSS2 cells", "experiment": "Antiviral assay, A549-ACE2-TMPRSS2 cells, WK521", "type": "cell-based"}, "[9]": {"experiment": "Pharmacokinetic study in PXB-mice (human liver-chimeric)"}}, "note": "Values joined by “and” are separate entries in the source; they are usually repeats but may differ in a detail not shown here. Equal entries are not always repeated. Where two headings read alike, the source gives them in different places.", "data": [{"smiles": "CC(C)(C)[C@H](NC(=O)C(F)(F)F)C(=O)N1C[C@H]2[C@@H]([C@H]1C(=O)N[C@@H](C[C@@H]1CCNC1=O)C(=O)c1nc3c(F)cccc3s1)C2(C)C", "note": "[TKB245]", "values": [{"measurement": "Effect on human calpain (in words)", "setting": "[1]", "result": "neither of human cysteine enzymes, cathepsin L and calpain, were significantly affected"}, {"measurement": "%inhibition against humanCalpain", "setting": "[1]; 0.000128 µM", "result": 0, "unit": "%"}, {"measurement": "%inhibition against humanCalpain", "setting": "[1]; 0.00064 µM", "result": 0, "unit": "%"}, {"measurement": "%inhibition against humanCalpain", "setting": "[1]; 0.0032 µM", "result": 0, "unit": "%"}, {"measurement": "%inhibition against humanCalpain", "setting": "[1]; 0.08 µM", "result": 0, "unit": "%"}, {"measurement": "%inhibition against humanCalpain", "setting": "[1]; 0.4 µM", "result": 0, "unit": "%"}, {"measurement": "%inhibition against humanCalpain", "setting": "[1]; 2 µM", "result": "9.6344% and 1.813%"}, {"measurement": "IC50", "setting": "[1]; 60 minute incubation, mean ± 1 S.D., n=3, read-out: IC50, human calpains", "result": "> 2000", "unit": "nM"}, {"measurement": "EC95, Average", "setting": "[2]", "result": 0.53}, {"measurement": "EC95, individual assays", "setting": "[2]", "result": "0.59 and 0.09 and 0.55 and 0.89"}, {"measurement": "SARS-CoV2 RNA VeroE6 cell-based assay EC95", "setting": "[2]", "result": "530 nM and 530 ± 330 nM"}, {"measurement": "EC50", "setting": "[2]; read-out: EC50, Average", "result": 31.2, "unit": "nM"}, {"measurement": "EC50", "setting": "[2]; read-out: EC50, VeroE6 + 2 µM CP100356", "result": "1 ± 1", "unit": "nM"}, {"measurement": "EC50", "setting": "[2]; read-out: EC50, VeroE6 with CP100356, Average", "result": 1.56, "unit": "nM"}, {"measurement": "EC50", "setting": "[2]; read-out: EC50, VeroE6 with CP100356, individual assays", "result": "1.4 nM and 2.37 nM and 0.9 nM"}, {"measurement": "EC50", "setting": "[2]; read-out: EC50, individual assays", "result": "40 nM and 20 nM and 50 nM and 15 nM"}, {"measurement": "EC50", "setting": "[2]; read-out: SARS-CoV2 RNA VeroE6 cell-based assay EC50", "result": "30 ± 20", "unit": "nM"}, {"measurement": "EC50", "setting": "[3]; read-out: EC50 ο BA1, Average", "result": 13.7, "unit": "nM"}, {"measurement": "EC50", "setting": "[3]; read-out: EC50 ο BA1, individual assays", "result": "10 nM and 7 nM and 24.2 nM"}, {"measurement": "EC50", "setting": "[4]; read-out: EC50 against TKYVS2037/ο BA.2", "result": "45 ± 14", "unit": "nM"}, {"measurement": "EC50", "setting": "[4]; read-out: EC50 ο BA2, Average", "result": 45.3, "unit": "nM"}, {"measurement": "EC50", "setting": "[4]; read-out: EC50 ο BA2, individual assays", "result": "60 nM and 32 nM and 44 nM"}, {"measurement": "EC50", "setting": "[5]; read-out: EC50 against TKYTS14631/ο BA.5", "result": "19 ± 5", "unit": "nM"}, {"measurement": "EC50", "setting": "[5]; read-out: EC50 ο BA5, Average", "result": 18.8, "unit": "nM"}, {"measurement": "EC50", "setting": "[5]; read-out: EC50 ο BA5, individual assays", "result": "16.1 nM and 24.7 nM and 15.6 nM"}, {"measurement": "EC50", "setting": "[6]; read-out: EC50 against UT-NCD1757-1N/ο BA.2.75", "result": "49 ± 5", "unit": "nM"}, {"measurement": "EC50", "setting": "[6]; read-out: EC50 ο BA2.75, Average", "result": 49.3, "unit": "nM"}, {"measurement": "EC50", "setting": "[6]; read-out: EC50 ο BA2.75, individual assays", "result": "55 nM and 44 nM"}, {"measurement": "EC50", "setting": "[7]; SARS-CoV-2^WK521, read-out: EC50, HeLa-ACE2-TMPRSS2", "result": "21 ± 8", "unit": "nM"}, {"measurement": "EC50", "setting": "[7]; source data, listed as TKB0245, read-out: EC50, HeLa-AEC2-TMPRSS2, individual assays", "result": "14 nM and 30 nM and 20 nM"}, {"measurement": "EC50", "setting": "[7]; source data, read-out: EC50, HeLa-AEC2-TMPRSS2, Average", "result": 21.3, "unit": "nM"}, {"measurement": "EC50", "setting": "[8]; SARS-CoV-2^WK521, read-out: EC50, A549-ACE2-TMPRSS2", "result": "2.7 ± 0.2", "unit": "nM"}, {"measurement": "EC50", "setting": "[8]; source data, listed as TKB0245, read-out: EC50, A549-AEC2-TMPRSS2, individual assays", "result": "3 nM and 2.47 nM and 2.78 nM"}, {"measurement": "EC50", "setting": "[8]; source data, read-out: EC50, A549-AEC2-TMPRSS2, Average", "result": 2.75, "unit": "nM"}, {"measurement": "Cmax", "setting": "[9]; N = 3 male PXB-mouse, 10 mg/kg p.o.", "result": "1,901¶ ng/mL"}, {"measurement": "T1/2", "setting": "[9]; N = 3 male PXB-mouse, 10 mg/kg, oral (p.o.) value for TKB245", "result": "3.82¶ h"}, {"measurement": "t1/2", "setting": "[9]; PXB-mice, 10 mg/kg i.v.", "result": 1.25, "unit": "h"}, {"measurement": "Vdss", "setting": "[9]; PXB-mice, 10 mg/kg i.v., mean ± S.E.", "result": "0.0302 ± 0.00381", "unit": "L/kg"}, {"measurement": "AUC", "setting": "[9]; PXB-mice, 10 mg/kg i.v., mean ± S.E., n=3", "result": "10700 ± 540", "unit": "ng·h/mL"}]}]}
